The record followed here is patent publication US7238693B2, “Aryl carbamate derivatives, preparation and use thereof” (Cerep, priority 2001, dated 2007).

Type in all cases: binding
One experiment addresses T1, human isoform h5-HT4e (Homo sapiens, UniProt Q13639).
T1 construct: expressed in transfected cells; membrane preparation
Kind of experiment: displacement of radioligand [3H]-GR113808 in rat glial cells expressing h5-HT4e. The protocol:
The compounds of the invention were evaluated by measuring their affinity constant Ki determined by displacing a radioligand [^3H]-GR113808 in rat glial cells stably expressing the human isoform h5-HT4e.
Confluent glial cells were washed twice in PBS and centrifuged at 300 g for 5 min. The pellet was used immediately and the cells were suspended in 10 volumes of HEPES (50 mM, pH 7.4, 4° C.) then homogenized with a teflon homogenizer and centrifuged at 40,000 g for 20 min. The pellet was resuspended in 15 volumes of HEPES. Displacement experiments were carried out in 500 μl of buffer (50 mM HEPES) containing 20 μl of radioligand [^3H]-GR113808 at a concentration of 0.2 nM for isoform h5-HT4e or at a concentration equal to half of the Kd of the radioligand for the other isoforms expressed in COS cells, 20 μl of competitor ligand at seven different concentrations and 50 μl of membrane preparation (100–200 μg of protein determined by the Bradford method). Binding was carried out at 25° C. for 30 min and the reaction was stopped by rapid vacuum filtration (Brandel Harvester) on Whatman GF/B filters preincubated in 0.1% PEI solution to minimize nonspecific binding.
Membrane-bound radioactivity is retained on the filter, which was cut and washed with cold buffer (50 mM Tris-HCl, pH 7.4) and incubated overnight in 4 ml of scintillation liquid. Radioactivity was measured in a liquid scintillation counter (Beckman LS 6500C). Binding data were obtained by computer assisted linear regression (Graph Prism Program, Graph Pad Software. Inc., San Diego, Calif.)

A further experiment concerns the target T2, 5-HT2C receptor (Homo sapiens, UniProt P28335).
T2 sequence (P28335 33-458): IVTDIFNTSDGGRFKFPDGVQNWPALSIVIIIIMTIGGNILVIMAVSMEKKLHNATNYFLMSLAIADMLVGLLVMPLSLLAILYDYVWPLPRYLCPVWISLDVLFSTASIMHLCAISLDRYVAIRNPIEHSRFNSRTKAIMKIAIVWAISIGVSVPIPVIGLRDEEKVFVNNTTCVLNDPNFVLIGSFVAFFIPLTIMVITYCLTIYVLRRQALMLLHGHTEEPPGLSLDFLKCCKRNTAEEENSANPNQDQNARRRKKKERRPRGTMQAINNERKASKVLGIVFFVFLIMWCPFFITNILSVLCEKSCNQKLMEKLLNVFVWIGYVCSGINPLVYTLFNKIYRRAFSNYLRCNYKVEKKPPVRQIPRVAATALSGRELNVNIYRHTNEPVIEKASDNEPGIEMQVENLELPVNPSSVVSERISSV
As to the kind of experiment: selectivity, 5-HT2C receptor. To be noted: up to a concentration of 1 μM.

The target of a further experiment is 5-HT5A receptor (Homo sapiens, UniProt P47898). As to the kind of experiment: selectivity, 5-HT5A receptor. The conditions noted are these: up to a concentration of 1 μM.
The target of the next experiment is 5-HT2A receptor (Homo sapiens, UniProt P28223). Kind of experiment: selectivity, 5-HT2A receptor. The conditions noted are these: up to a concentration of 1 μM.
The target of a further experiment is 5-HT7 receptor (Homo sapiens, UniProt P34969). As to the kind of experiment: selectivity, 5-HT7 receptor. To be noted: up to a concentration of 1 μM.
The target in a further experiment is 5-HT1B receptor (Homo sapiens, UniProt P28222). Kind of experiment: selectivity, 5-HT1B receptor. To be noted: up to a concentration of 1 μM.
In the next experiment the target is T3, 5-HT1A receptor (Homo sapiens, UniProt P08908).
T3 sequence (P08908 1-422): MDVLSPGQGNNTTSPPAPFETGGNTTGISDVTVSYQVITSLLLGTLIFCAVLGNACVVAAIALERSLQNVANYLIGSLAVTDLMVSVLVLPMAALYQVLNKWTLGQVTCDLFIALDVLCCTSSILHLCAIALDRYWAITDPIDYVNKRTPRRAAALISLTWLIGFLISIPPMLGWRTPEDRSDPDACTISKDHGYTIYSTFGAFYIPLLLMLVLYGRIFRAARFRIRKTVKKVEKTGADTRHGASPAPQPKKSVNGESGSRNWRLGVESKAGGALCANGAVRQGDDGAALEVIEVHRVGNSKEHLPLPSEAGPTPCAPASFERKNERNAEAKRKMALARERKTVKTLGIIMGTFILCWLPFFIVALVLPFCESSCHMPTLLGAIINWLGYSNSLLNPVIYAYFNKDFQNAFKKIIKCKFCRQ
Kind of experiment: selectivity, 5-HT1A receptor. To be noted: up to a concentration of 1 μM.

For a further experiment, the target named is T4, 5-HT3 receptor (Homo sapiens, UniProt P46098).
T4 sequence (P46098 24-478): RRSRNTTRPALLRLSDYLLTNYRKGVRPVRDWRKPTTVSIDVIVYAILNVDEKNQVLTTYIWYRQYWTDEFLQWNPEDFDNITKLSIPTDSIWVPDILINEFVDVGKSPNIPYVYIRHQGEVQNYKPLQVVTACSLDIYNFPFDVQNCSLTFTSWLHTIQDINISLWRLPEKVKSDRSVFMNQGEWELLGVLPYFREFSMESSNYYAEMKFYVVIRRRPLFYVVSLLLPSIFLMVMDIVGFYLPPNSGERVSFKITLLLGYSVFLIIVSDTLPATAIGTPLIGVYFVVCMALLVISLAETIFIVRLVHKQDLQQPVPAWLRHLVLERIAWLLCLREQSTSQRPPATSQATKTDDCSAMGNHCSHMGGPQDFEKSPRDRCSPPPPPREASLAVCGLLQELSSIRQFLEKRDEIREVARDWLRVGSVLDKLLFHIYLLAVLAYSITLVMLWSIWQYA
As to the kind of experiment: selectivity, 5-HT3 receptor. The conditions noted are these: up to a concentration of 1 μM.

The next experiment has as its target 5-HT6 receptor (Homo sapiens, UniProt P50406). Kind of experiment: selectivity, 5-HT6 receptor. To be noted: up to a concentration of 1 μM.
The mark [1] stands for this setting: [3H]-GR113808 0.2 nM, membranes of rat glial cells expressing h5-HT4e, 25° C., 30 min, read-out: Ki.

Molecules are shown by their SMILES. Where two headings read alike, the source gives them in different places.

T1 sequence (Q13639 1-378 isoform Q13639-5): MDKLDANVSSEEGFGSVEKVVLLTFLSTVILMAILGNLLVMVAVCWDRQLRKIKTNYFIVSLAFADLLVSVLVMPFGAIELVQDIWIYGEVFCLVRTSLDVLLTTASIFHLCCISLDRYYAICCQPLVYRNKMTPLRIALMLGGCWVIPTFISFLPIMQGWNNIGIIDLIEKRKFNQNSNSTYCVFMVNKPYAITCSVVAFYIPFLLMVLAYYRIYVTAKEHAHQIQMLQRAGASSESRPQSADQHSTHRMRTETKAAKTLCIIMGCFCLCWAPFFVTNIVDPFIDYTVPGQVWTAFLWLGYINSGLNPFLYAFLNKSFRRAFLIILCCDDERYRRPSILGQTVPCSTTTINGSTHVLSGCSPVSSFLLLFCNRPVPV
Chain of 5-HT6 receptor (P50406 whole entry): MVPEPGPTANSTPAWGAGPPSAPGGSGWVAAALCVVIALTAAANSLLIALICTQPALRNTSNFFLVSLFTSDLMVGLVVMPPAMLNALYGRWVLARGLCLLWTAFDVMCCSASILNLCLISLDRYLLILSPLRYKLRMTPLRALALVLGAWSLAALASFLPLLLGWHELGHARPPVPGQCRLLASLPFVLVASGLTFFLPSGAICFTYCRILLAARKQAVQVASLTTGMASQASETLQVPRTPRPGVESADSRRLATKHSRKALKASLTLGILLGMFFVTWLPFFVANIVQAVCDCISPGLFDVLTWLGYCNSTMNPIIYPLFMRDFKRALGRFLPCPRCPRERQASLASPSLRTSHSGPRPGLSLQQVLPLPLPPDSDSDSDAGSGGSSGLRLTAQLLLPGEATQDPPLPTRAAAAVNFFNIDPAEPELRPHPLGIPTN
Chain of 5-HT5A receptor (P47898 whole entry): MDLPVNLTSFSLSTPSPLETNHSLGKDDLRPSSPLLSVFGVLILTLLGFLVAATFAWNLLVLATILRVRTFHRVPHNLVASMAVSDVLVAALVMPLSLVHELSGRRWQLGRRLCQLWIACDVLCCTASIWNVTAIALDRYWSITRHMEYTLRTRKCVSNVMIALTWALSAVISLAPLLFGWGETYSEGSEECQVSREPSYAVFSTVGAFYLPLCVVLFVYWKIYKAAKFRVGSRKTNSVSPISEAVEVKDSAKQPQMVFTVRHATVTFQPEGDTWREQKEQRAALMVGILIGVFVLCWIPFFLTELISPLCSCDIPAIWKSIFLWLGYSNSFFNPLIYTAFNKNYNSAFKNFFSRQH
Chain of 5-HT2A receptor (P28223 whole entry): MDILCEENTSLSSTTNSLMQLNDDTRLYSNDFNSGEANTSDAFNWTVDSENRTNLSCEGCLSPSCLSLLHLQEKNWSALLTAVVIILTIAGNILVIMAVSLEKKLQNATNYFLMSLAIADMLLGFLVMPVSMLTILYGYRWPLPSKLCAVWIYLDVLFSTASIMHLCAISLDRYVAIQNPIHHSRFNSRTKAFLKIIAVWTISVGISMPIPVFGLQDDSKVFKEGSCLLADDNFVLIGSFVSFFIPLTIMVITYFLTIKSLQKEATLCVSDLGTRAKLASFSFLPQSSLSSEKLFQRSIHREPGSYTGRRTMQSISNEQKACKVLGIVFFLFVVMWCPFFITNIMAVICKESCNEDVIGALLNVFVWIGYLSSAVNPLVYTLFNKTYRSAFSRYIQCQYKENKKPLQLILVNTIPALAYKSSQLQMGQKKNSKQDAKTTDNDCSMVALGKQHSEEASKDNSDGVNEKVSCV
Chain of 5-HT7 receptor (P34969 whole entry): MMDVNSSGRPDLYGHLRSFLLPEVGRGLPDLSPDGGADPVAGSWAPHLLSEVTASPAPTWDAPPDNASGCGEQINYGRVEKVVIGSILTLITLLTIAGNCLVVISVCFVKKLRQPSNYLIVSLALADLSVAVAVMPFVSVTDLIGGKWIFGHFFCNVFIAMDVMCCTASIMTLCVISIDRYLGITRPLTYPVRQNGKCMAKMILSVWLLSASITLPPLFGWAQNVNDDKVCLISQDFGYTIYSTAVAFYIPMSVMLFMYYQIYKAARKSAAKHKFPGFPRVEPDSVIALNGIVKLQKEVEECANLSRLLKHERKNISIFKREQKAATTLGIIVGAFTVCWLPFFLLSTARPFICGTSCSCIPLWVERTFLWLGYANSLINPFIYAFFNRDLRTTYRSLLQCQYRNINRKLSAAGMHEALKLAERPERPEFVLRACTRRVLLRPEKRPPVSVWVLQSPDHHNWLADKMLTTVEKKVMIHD
Chain of 5-HT1B receptor (P28222 whole entry): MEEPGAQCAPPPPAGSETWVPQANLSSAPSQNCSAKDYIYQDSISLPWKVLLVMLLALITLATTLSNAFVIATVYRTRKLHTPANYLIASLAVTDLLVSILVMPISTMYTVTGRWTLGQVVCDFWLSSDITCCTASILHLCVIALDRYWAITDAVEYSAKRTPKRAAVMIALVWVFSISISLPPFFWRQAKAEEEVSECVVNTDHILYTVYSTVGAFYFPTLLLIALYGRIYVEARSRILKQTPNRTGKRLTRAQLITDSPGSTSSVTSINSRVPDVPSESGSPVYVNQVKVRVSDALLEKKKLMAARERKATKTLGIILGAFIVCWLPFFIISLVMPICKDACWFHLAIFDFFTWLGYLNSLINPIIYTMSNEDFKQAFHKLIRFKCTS

With `CCOc1ccccc1NC(=O)OCCN1CCN(c2cccc(C)c2)CC1` [Compound 21, 2-[4-(3-methylphenyl)piperazino]ethyl-N-(2-ethoxyphenyl)carbamate], the Ki on human isoform h5-HT4e (setting [1]) amounted to 20.2 nM.

Turning to `CCOc1ccccc1NC(=O)OCCN1CCN(c2ccccn2)CC1` [Compound 24, 2-[4-(2-pyridinyl)piperazino]ethyl-N-(2-ethoxyphenyl)carbamate], the Ki on human isoform h5-HT4e (setting [1]) turned out to be 4.5 nM.

As for `CCOc1ccccc1NC(=O)OCCCN1CCN(c2ccccn2)CC1` [Compound 40, 3-[4-(2-pyridinyl)piperazino]propyl-N-(2-ethoxyphenyl)carbamate], the inhibitory constant (Ki) at human isoform h5-HT4e (setting [1]) was 9.9 nM.

For `CCOc1ccccc1NC(=O)OCCCN1CCN(c2cccnn2)CC1` [Compound 42, 3-[4-(3-pyridazinyl)piperazino]propyl-N-(2-ethoxyphenyl)carbamate], the Ki at human isoform h5-HT4e (setting [1]) was determined as 3.6 nM.

In the case of `CCOc1ccccc1NC(=O)OCCCN1CCN(c2ccncn2)CC1` [Compound 43, 3-[4-(4-pyrimidinyl)piperazino]propyl-N-(2-ethoxyphenyl)carbamate], the Ki on human isoform h5-HT4e (setting [1]) was found to be 10.4 nM.

Turning to `CCOc1ccccc1NC(=O)OCCCN1CCN(c2ncccn2)CC1` [Compound 44, 3-[4-(2-pyrimidinyl)piperazino]propyl-N-(2-ethoxyphenyl)carbamate], the Ki on human isoform h5-HT4e (setting [1]) is 11.8 nM.

With `CCOc1ccccc1NC(=O)OCCCN1CCN(c2ccc(C)nn2)CC1` [Compound 48, 3-[4-(6-methyl-3-pyridazinyl)piperazino]propyl-N-(2-ethoxyphenyl)carbamate], the inhibition constant Ki on human isoform h5-HT4e (setting [1]) worked out at 3.9 nM.

With `COc1cccc(N2CCN(CCOC(=O)Nc3ccccc3OC)CC2)c1` [Compound 51, 2-[4-(3-methoxyphenyl)piperazino]ethyl-N-(2-methoxyphenyl)carbamate], at human isoform h5-HT4e (setting [1]), the Ki stood at 12.7 nM.

On to `COc1ccccc1NC(=O)OCCN1CCN(c2ccccn2)CC1` [Compound 62, 2-[4-(2-pyridinyl)piperazino]ethyl-N-(2-methoxyphenyl)carbamate], for which the Ki on human isoform h5-HT4e (setting [1]) amounted to 9.3 nM.

For `COc1ccccc1NC(=O)OCCN1CCN(c2ccncc2)CC1` [Compound 63, 2-[4-(4-pyridinyl)piperazino]ethyl-N-(2-methoxyphenyl)carbamate], the “activity for the 5-HT2C receptor” value at 5-HT2C receptor is listed as “no activity”. The “activity for the 5-HT5A receptor” value on 5-HT5A receptor is reported as “no activity”. Besides, at human isoform h5-HT4e (as stated in the description, read-out: Ki for the 5-HT4 receptor), the Ki is 5 nM. The “activity for the 5-HT2A receptor” value on 5-HT2A receptor was “no activity”. Also, the “activity for the 5-HT7 receptor” value at 5-HT7 receptor was “no activity”. Also, the “activity for the 5-HT1B receptor” value on 5-HT1B receptor is recorded as “no activity”. Besides, the “activity for the 5-HT1A receptor” value on 5-HT1A receptor is “no activity”. Further, the “activity for the 5-HT3 receptor” value at 5-HT3 receptor is listed as “no activity”. The “activity for the 5-HT6 receptor” value at 5-HT6 receptor is given as “no activity”.

Turning to `COc1ccccc1NC(=O)OCCN1CCN(c2cccnn2)CC1` [Compound 64, 2-[4-(3-pyridazinyl)piperazino]ethyl-N-(2-methoxyphenyl)carbamate], the Ki at human isoform h5-HT4e (setting [1]) worked out at 10.6 nM.

`COc1ccccc1NC(=O)OCCN1CCN(c2ncccn2)CC1` [Compound 65, 2-[4-(2-pyrimidinyl)piperazino]ethyl-N-(2-methoxyphenyl)carbamate]: the Ki on human isoform h5-HT4e (setting [1]) is 10.4 nM.

For `COc1ccccc1NC(=O)OCCCN1CCN(c2ccncc2)CC1` [Compound 83, 3-[4-(4-pyridinyl)piperazino]propyl-N-(2-methoxyphenyl)carbamate], the Ki at human isoform h5-HT4e (setting [1]) worked out at 10 nM.
